Data set [1] is described as follows: MTT cytotoxicity assay. Format: cell-based. Conditions: mouse, HT-22 hippocampal neuronal cells, HT-22 cells. How it is done: As these compounds show potential for future in vivo studies, the 3-(4,5-dimethythiazol-2-yl)-2,5-diphenyl tetrazolium bromide (MTT) assay was performed in order to test compounds 2, 3 of Chart 4 for cytotoxicity with HT-22 cells, which is a hippocampal neuronal cell line extracted from mice. This is a colorimetric assay that measures the mitochondrial activity of living cells in which MTT crosses into the mitochondria where it is reduced to media insoluble formazan (dark purple), which is later solubilized in DMSO and measured spectroscopically (λmax=540 nm). Since the reduction of MTT can only occur in living cells with undamaged mitochondria, this is a good assay to measure cell proliferation and cytotoxicity.
For the biological assays mouse hippocampal HT-22 cell line was used, incubated them at 37° C. in a humidified atmosphere 5% CO2, with Dulbecco's Modified Eagle Medium (500 ml) containing penicillin/streptomycin 100× (5 ml), Glutamine (100 mM, 5 ml), charcoal strip fetal bovine serum. […]
(3-(4,5-dimethylthiazol-2-yl)-2,5-diphenyltetrazolium bromide) cells were seeded in a 96 well plate with a density of 5000 cells per well (in 100 μL per well). […] Media is discarded again and 100 μL of DMSO are added to each well, rocked for 5 minutes and the absorbance (A510) was measured using a Molecular Devices Kinetic Microplate Reader.
(Tetrazolium dyes change colour on reduction, which living cells bring about.)

Data set [2] can be described thus: DPPH radical quenching assay. Type of data set: biochemical. An excerpt:
Compound 2 (Chart 2) exists largely as the pyridol tautomer as confirmed by NMR. The reactivity of pyridol/pyridone based compounds such as chelidamic acid have shown reactivity with OH radicals in solution to form bis-pyridones and is a different mechanism than pyridine based compounds such as 1 (Chart 2). This reactivity is attributed to the enhanced antioxidant capacity observed. Chelidamic acid is the pyridone congener to the starting material used to produce 1. Therefore similar methodologies to produce 2 in gram scale quantities were employed.
As radicals are one product of miscompartmentalized metal ions, radical scavenging capability of compounds 1-3 (Chart 4) was tested using the DPPH assay. DPPH (2,2-diphenyl-1-picrylhydrazyl), is a dark purple (λmax=540 nm), stable free radical in solution that can be reduced to DPPHH in the presence of molecules with radical scavenging activity. This process results in a color change from dark purple to light yellow and can be followed spectroscopically by the decrease of the band at 540 nm. Applicants have, therefore, utilized this method to measure radical scavenging capability of their own organic molecules. BHT (butylhydroxytoluene) was used as a positive control due to its known antioxidant properties.
DPPH stock solution was prepared by dissolving 25 mg in 100 mL of absolute EtOH. The working radical solution was prepared by dilution with absolute EtOH to an absorbance of 1.3 at 512 nm. Stock solutions of the compounds tested were dissolved in DI H2O and EtOH 95% respectively and serial dilutions were made to get different concentrations. For the analysis 2 mL of the solutions were incubated with 2 mL of DPPH working solutions in the dark for 24 h. as well as 2 mL of DPPH working solution with 2 mL of H2O or EtOH to serve as blank. Analysis of the solutions was performed as follows: 1 mL of the sample solution was diluted with 1 mL of H2O shaken and the absorbance was measured at 515 nm.
Background: Loss of DPPH colour is used to gauge radical scavenging.

Data set [3] in a line: ABTS radical assay standardized against Trolox. Conditions: ligand concentration 100 μM. Type of data set: biochemical.
The test system of data set [4] is FRDA cells. Description: Calcein AM viability assay with BSO. The conditions noted are these: Homo sapiens, 48 hour BSO 1 mM; for viability at 0.001 µM: compound 1 nM final, read-out: cell viability compared to untreated control cells. Format: cell-based, human. How it is done:
(§1) FIG. 5 is a graph showing a Calcien AM viability assay of FRDA cells after 48 hour exposure to BSO [1 mM] with 1-4 [1 nM final].
(§2) FIG. 10 is a graph showing Calcein AM viability assay of FRDA cells after 48 hour exposure to BSO [1 mM] followed by addition of 2 [various concentrations].
(§3) FRDA cells have higher levels of ROS due to mitochondrial misfunction associated with frataxin expression and therefore serve as a good model for ROS protection. […] Calcein AM, a non-fluorescent, hydrophobic compound that easily permeates intact, live cells, was used as an indicator for cell viability.
(§4) This dose response is visualized in the fluorescent cell images shown in FIG. 11 with increased cell survival corresponding to increasing 2 in the nM range.

Data set [5] can be described thus: log K constants with Cu^II. Type of data set: binding. An excerpt:
(§5) The ligand is the backbone to PCTA, a potential MRI contrast agent explored in recent years and has been repurposed for Applicant's work.

A short description of data set [6]: log K constants with Zn^II. Format: binding.
Text: as §5

Data set [7] can be described thus: Calcein AM viability assay with BSO. Type of data set: cell-based, human. The conditions noted are these: human, FRDA cells (fibroblasts from a Friedreich's Ataxia patient), BSO 1 mM alone, read-out: cell viability compared to control cells, BSO-alone. How it is done:
as §1, §2, §3, §4

For data set [8], the system named is FRDA cells. Description: DCFH-DA ROS assay with BSO. Format: cell-based, human. How it is done: FIG. 6 is a graph showing DCFH-DA fluorescent response in FRDA cells after 12 hours exposure to BSO [1 mM] with 1-4 [4 nM].
FIG. 7 is a graph of DCFH-DA fluorescent response in FRDA cells after 12 hours exposure to BSO [1 mM] showing dose dependence with 1.
FIG. 9 is a graph of DCFH-DA fluorescent response in FRDA cells after 12 hours exposure to BSO [1 mM] showing dose dependence with 1 and 2.
The antioxidant activity of compound 1 compared to compounds 2-3 (Chart 1) was then studied using the cell-permeable fluorophore 2,7′-Dichlorodihydrofluorescin diacetate (DCFH-DA) as an indicator for ROS. DCFH-DA diffuses into cells and is deacetylated by cellular esterases to non-fluorescent 2′,7′-Dichlorodihydrofluorescin (DCFH). This species is subsequently oxidized to the highly fluorescent 2′,7′-Dichlorodihydrofluorescein (DCF) species in the presence of ROS. The fluorescent intensity is directly proportional to the amount of ROS present in cell cytosol. BSO (2-amino-4-(butylsulfonimidoyl)butanoic acid) was used to inhibit the first step of de novo glutathione synthesis, allowing us to observe the elevated intra-cellular [ROS] are thereby observed.
Cellular studies were carried out to evaluate the intra-cellular antioxidant efficacy and toxicity of compound 2 (Chart 2) compared to 1 using the cell-permeable fluorophore 2,7′-dichlorodihydrofluorescin diacetate (DCFH-DA) as an indicator for ROS. DCFH-DA diffuses into cells and is deacetylated by cellular esterases to non-fluorescent 2′,7′-dichlorodihydrofluorescin (DCFH) which is subsequently oxidized to the highly fluorescent 2′,7′-dichlorodihydrofluorescein (DCF) species in the presence of ROS. The fluorescence intensity is directly proportional to the amount of ROS present in cell cytosol.^11 BSO (2-amino-4-(butylsulfonimidoyl)butanoic acid) is a commonly used model for oxidative stress via inhibition of cytosolic glutathione synthesis resulting in elevated intra-cellular [ROS] and an increased fluorescent signal in the presence of DCFH (FIG. 9).

For data set [9], the system named is Aβ1-40. Kind of data set: Turbidity assay of metal-induced amyloid aggregation. Format: biochemical. Conditions: for disaggregation of pre-formed metal-induced Aβ1-40 aggregates (turbidity): copper(II) or zinc(II) aggregates, ligand added afterwards. The text has this:
Metal ions (copper and zinc) bind to a histidine rich domain in amyloid producing Aβ in the form of insoluble plaques. This process has been comprehensively studied and described in a number of recent reviews. The aggregation of amyloid can be followed by simple spectroscopic techniques such as turbidity and tyrosine fluorescence studies. These methods were used to investigate the ability of 1 to dissociate pre-formed amyloid aggregates upon addition of metal ions, as well as prevent amyloid aggregation.
Metal ions bind to a histidine rich domain in amyloid producing Aβ in the form of insoluble plaques. This process has been extensively studied and described in a number of recent reviews.

For data set [10], the system named is Aβ1-40. Kind of data set: Tyr^10 fluorescence of Aβ1-40. Type of data set: biochemical. The text has this:
FIG. 2 is a graph showing the addition of ligands 1-4 to aggregated Aβ results in reconstitution of Tyr^10 fluorescence which was decreased due to aggregate formation.
To further determine the capability of 1 to prevent or disrupt metal-ion induced amyloid aggregation, Applicant's studied Tyr fluorescence intensity. Recent reports have also utilized the natural fluorescence of the native Tyr^10 in the Aβ1-40 sequence to study the conformational dynamics of amyloid folding as it relates to AD and/or production of H2O2. As Tyr^10 is located within proximity to the metal binding pocket in Aβ1-40 the fluorescence intensity of the phenolic side chain decreases during the folding process due to environmental changes that occur locally. This work was supported by circular dichroism spectra, which verified that fluorescence intensity decreased as the conformation of amyloid changed to beta-sheets. […] Applicant's hypothesis was that Tyr fluorescence intensity should be restored to control levels upon addition of compounds 1-4 (Chart 1) to a solution of pre-formed metal aggregates, as shown below in FIG. 2. […] Similar results were also obtained for amyloid samples co-incubated with 1-4 prior to metal ion addition.
The macrocyclic compound 2 (Chart 2) is also a chelator capable of preventing metal-induced amyloid formation as well as disaggregation. Metal ions bind to a histidine rich domain in amyloid producing Aβ in the form of insoluble plaques. This process has been extensively studied and described in a number of recent reviews. […] Moreover, amyloid aggregates formed by metal ion co-incubation can be disaggregated by the addition of compounds 1 or 2 (FIG. 12b).

The conditions of data set [11]: LA/DHLA; cited from earlier work.
Data set [12] in a line: Cu-ascorbate redox system with coumarin-3-carboxylic acid (CCA). Format: biochemical. The conditions noted are these: added after two minutes co-incubation with CCA. The text has this: As increased levels of ROS are associated with AD, Applicant's set out to investigate the antioxidant character of 1 compared to the heterocycles 2 and/or 3. […] Moreover, many of the pathways proposed to produce ROS leading to AD pathology involve metal ions. Applicant's therefore utilized the Cu-ascorbate redox system, Scheme 1, as a model to determine if the ligands could halt copper based redox activity under aerobic conditions:
Faller and co-workers employed this system to investigate the redox chemistry of amyloid systems with Cu. Coumarin-3-carboxylic acid (CCA), which generates fluorescent 7-hydroxy-CCA in the presence of hydroxyl radicals, was used to quantify the reduction of oxygen by copper redox-cycling in the presence of ascorbate.

Regarding `O=C(NCCNc1nc(N2CCNCCNCCNCC2)nc(N2CCNCCNCCNCC2)n1)c1cc2ccccc2oc1=O` [3 (Chart 4), N-(2-((4,6-di(1,4,7,10-tetraazacyclododecan-1-yl)-1,3,5-triazin-2-yl)amino)ethyl)-2-oxo-2H-chromene-3-carboxamide], in [1], the EC50 at 48 h turned out to be 125 µM. Also, the “quenching of the DPPH radical” value in data set [2] (concentration dependent, concentrations not given) is given as 52-64%.

Consider `O=C(O)CN(CCN(CC(=O)O)CC(=O)O)CC(=O)O` [4 (Chart 1)], for which the “Trolox equivalents (ABTS radical)” value in data set [3] was determined as 0.15 Trolox equivalents. In data set [4], the viability at 0.001 µM was greater than 60%. The “log K constants Cu^II” value in [5] turned out to be 9.18. Moreover, the “log K constants Zn^II” value in data set [6] amounted to 8.41.

Consider `CCCCS(=N)(=O)CCC(N)C(=O)O` (centres unmarked) [BSO, 2-amino-4-(butylsulfonimidoyl)butanoic acid, reference compound], for which the viability at 48 h, 1 mM in data set [7] is roughly 45%. Moreover, in data set [8] (BSO 1 mM alone), the “increase in ROS, BSO-treated cells (positive control)” value was roughly 1.8 fold.

With `C1CNCCNCCNCCN1` [Compound 2 (Chart 1)], in data set [3], the “Trolox equivalents (ABTS radical)” value is 0.23 Trolox equivalents. The “disaggregation of pre-formed metal-induced Aβ1-40 aggregates (turbidity)” value in data set [9] is “Aβ dis-aggregating agents, which Applicant's studies corroborate”. In addition, the viability at 0.001 µM in [4] was greater than 60%. For the same compound, the “log K constants Cu^II” value in data set [5] is listed as 23. In data set [6], the “log K constants Zn^II” value was found to be 16.

As for `Oc1cc2nc(c1)CNCCNCCNC2` [Compound 2 (Chart 2)], in data set [10] (ligand added to pre-formed metal aggregates), the “reconstitution of Tyr^10 fluorescence of aggregated Aβ1-40” value was “equally effective”. In addition, in data set [10] (ligand co-incubated prior to metal ion addition, 24 hours), the “prevention of loss of Tyr^10 fluorescence of Aβ1-40” value is “equally effective”. The “disaggregation of pre-formed metal-induced Aβ1-40 aggregates (turbidity)” value in data set [9] is on record as “disaggregated”. Further, the “prevention of metal-induced Aβ1-40 aggregation (turbidity)” value in [9] (ligand co-incubated with amyloid before copper(II) or zinc(II) addition) is listed as “prevents formation of aggregations”. The EC50 in data set [4] (read-out: EC50 protection against BSO assault (Calcein AM)) is 31.5 ± 4.96 nM. For the same compound, the “decrease of [ROS] compared to the untreated cells” value in data set [8] (1.25 nM) is recorded as 33%; in data set [8] (12.5 nM), 58%; in data set [8] (125 nM), 75%; in [8] (1.25 μM) it was 87%. The “ability to reduce free radicals in solution (DPPH) versus 1” value in data set [2] was “enhanced ability to reduce free radicals in solution”.

Take `O=C(O)CCCCC1CCSS1` (stereo not drawn) [LA, α-lipoic acid]: the redox potential in data set [11] was −320 mV.

For the compound `C1CNCCNCCNCCN1` [cyclen, 1,4,7,10-tetraazacyclododecane, reference compound], the “quenching of the DPPH radical” value in data set [2] (1250 μM) is recorded as “no activity”.

For “Aβ1-40: beta-amyloid peptide 1-40 with histidine rich metal binding site [reference compound]”, the “7-hydroxy-CCA signal after addition to running Cu-ascorbate system” value in data set [12] is reported as “leveling of the 7-hydroxy-CCA signal”.

Usually EC50 stands for the midpoint of the concentration-response curve. What is called viability is a per cent measure of how many cells are alive, often set against a control.

These data come from patent publication US8969549B2, “Antioxidant small molecules aimed at targeting metal-based oxidative stress in neurogenerative disorders” (Texas Christian University, priority 2013, dated 2015).
